How the values were obtained:
[1] = tested on: harmful plants such as Alopecurus myosuroides, Echinochloa crus galli, Setaria viridis and Veronica persica; test: Pre-emergence herbicidal effect (greenhouse pot test, visual scoring); format: in vivo; details: pre-emergence method, application rate of 0.32 kg of active substance per hectare, scored visually after about 3 weeks
Description: 1. Pre-emergence Herbicidal Effect and Crop Plant Compatibility
Seeds of monocotyledonous or dicotyledonous weeds or crop plants are placed in sandy loam soil in wood-fiber pots and covered with soil. The compounds (I) according to the invention, formulated in the form of wettable powders (WP), are then applied to the surface of the soil cover in the form of an aqueous suspension or emulsion at a water application rate of 600 I/ha (converted), with addition of 0.2% wetting agent.
Following the treatment, the pots are placed in the greenhouse and kept under good growth conditions for the test plants. After about 3 weeks, the activity of the preparations is scored visually in comparison to untreated controls (herbicidal activity in percent (%): 100% activity=the plants have died, 0% activity=like control plants).

[2] = tested on: harmful plants such as Avena fatua, Echinochloa crus galli, Lolium multiflorum, Setaria viridis, Veronica persica, Viola tricolor and Alopecurus myosuroides; test: Post-emergence herbicidal effect (greenhouse pot test, visual scoring); format: in vivo; details: post-emergence method, application rate of 0.32 kg or less of active substance per hectare, scored visually after about 3 weeks
Procedure: 2. Post-emergence Herbicidal Effect and Crop Plant Compatibility
Seeds of monocotyledonous and dicotyledonous weeds and crop plants are placed in sandy loam soil in wood-fiber pots, covered with soil, and cultivated in a greenhouse under good growth conditions. 2 to 3 weeks after sowing, the test plants are treated at the one-leaf stage. The compounds (I) according to the invention, formulated as wettable powders (WP), are then sprayed onto the green parts of the plants as an aqueous suspension or emulsion at a water application rate of 600 I/ha (converted), with addition of 0.2% wetting agent. The test plants are allowed to stand in a greenhouse for about 3 weeks under optimum growth conditions, and the effect of the preparations is then scored visually by comparison with untreated controls (herbicidal activity in percent (%): 100% activity=the plants have died, 0% activity=like control plants).

| SMILES | herbicidal activity [1] | herbicidal activity [2] |
| --- | --- | --- |
| COC(=O)Cc1c(C)nn(-c2cncnc2)c1-c1ccc([N+](=O)[O-])cc1 [Compound 2-243] | good herbicidal activity | good herbicidal activity |
| Cc1nn(-c2cncnc2)c(-c2ccc(Cl)cn2)c1CC(=O)OCC(F)F [Compound 3-353] | good herbicidal activity | good herbicidal activity |
| COC(=O)Cc1c(C)nn(-c2cncnc2)c1-c1ccc(Br)cn1 [Compound 2-120] | good herbicidal activity | good herbicidal activity |
| COC(=O)Cc1c(C)nn(-c2cncnc2)c1-c1cnc(C)cn1 [Compound 2-215] | good herbicidal activity | good herbicidal activity |
| CCOC(=O)Cc1c(C)nn(-c2cncnc2)c1-c1cc(C)ccn1 [Compound 3-36] | good herbicidal activity | – |
| COC(=O)Cc1c(C)nn(-c2cncnc2)c1-c1ccccc1 [Compound 2-2] | good herbicidal activity | good herbicidal activity |
| COC(=O)Cc1c(C)nn(-c2cncnc2)c1-c1cc(C)cc(C)c1 [Compound 2-47] | good herbicidal activity | good herbicidal activity |
| COC(=O)Cc1c(C)nn(-c2cncnc2)c1-c1ccccn1 [Compound 2-116, Methyl[3-methyl-5-(pyridin-2-yl)-1-(pyrimidin-5-yl)-1H-pyrazol-4-yl]acetate] | good herbicidal activity | good herbicidal activity |
| COC(=O)Cc1c(C)nn(-c2cncnc2)c1-c1ccc(Cl)cc1 [Compound 2-28] | good herbicidal activity | good herbicidal activity |
| COC(=O)Cc1c(C)nn(-c2cncnc2)c1-c1cc(C)cs1 [Compound 2-64] | good herbicidal activity | good herbicidal activity |
| C=CCc1ccc(-c2c(CC(=O)OC)c(C)nn2-c2cncnc2)nc1 [Compound 2-249] | good herbicidal activity | good herbicidal activity |
| Cc1nn(-c2cncnc2)c(-c2ccc(Cl)cn2)c1CC(=O)O [Compound 1-116] | good herbicidal activity | good herbicidal activity |
| Cc1nn(-c2cncnc2)c(-c2ccc(Cl)cc2)c1CC(=O)OCC1CC1 [Compound 3-121] | good herbicidal activity | good herbicidal activity |
| CCOC(=O)Cc1c(C)nn(-c2cncnc2)c1-c1ccc(Cl)cn1 [Compound 3-25] | good herbicidal activity | good herbicidal activity |
| COC(=O)Cc1c(C)nn(-c2cncnc2)c1-c1ccc(F)cc1 [Compound 2-132] | good herbicidal activity | good herbicidal activity |
| COC(=O)Cc1c(C)nn(-c2cncnc2)c1-c1ccc(C)cc1 [Compound 2-16] | good herbicidal activity | good herbicidal activity |
| COC(=O)Cc1c(C)nn(-c2cncnc2)c1-c1ccc(C)cn1 [Compound 2-124] | good herbicidal activity | good herbicidal activity |
| Cc1nn(-c2cncnc2)c(-c2ccc(Cl)cn2)c1CC(=O)OCC1CC1 [Compound 3-135] | good herbicidal activity | good herbicidal activity |
| CC#CCOC(=O)Cc1c(C)nn(-c2cncnc2)c1-c1ccc(Cl)cc1 [Compound 3-161] | good herbicidal activity | good herbicidal activity |
| COC(=O)Cc1c(C)nn(-c2cncnc2)c1-c1nc2ccccc2s1 [Compound 2-217] | good herbicidal activity | good herbicidal activity |

| SMILES | herbicidal activity [1] | herbicidal activity [2] |
| --- | --- | --- |
| CCOC(=O)Cc1c(C)nn(-c2cncnc2)c1-c1ccc(Cl)cc1 [Compound 3-4] | good herbicidal activity | good herbicidal activity |
| COc1ccnc(-c2c(CC(=O)O)c(C)nn2-c2cncnc2)c1 [Compound 1-154] | good herbicidal activity | good herbicidal activity |
| COC(=O)Cc1c(C)nn(-c2cncnc2)c1-c1cc(C)ccn1 [Compound 2-148] | good herbicidal activity | good herbicidal activity |
| Cc1cnc(-c2c(CC(=O)O)c(C)nn2-c2cncnc2)cn1 [Compound 1-214] | good herbicidal activity | good herbicidal activity |
| Cc1nn(-c2cncnc2)c(-c2ccc(Br)cn2)c1CC(=O)OCC1CC1 [Compound 3-136] | – | good herbicidal activity |
| COC(=O)Cc1c(C)nn(-c2cncnc2)c1-c1ccc(Cl)s1 [Compound 2-65] | good herbicidal activity | good herbicidal activity |
| COC(=O)Cc1c(C)nn(-c2cncnc2)c1-c1ncccn1 [Compound 2-224] | good herbicidal activity | good herbicidal activity |
| COC(=O)Cc1c(C)nn(-c2cncnc2)c1-c1cc(OC)ccn1 [Compound 2-155] | good herbicidal activity | good herbicidal activity |
| CCOC(=O)Cc1c(C)nn(-c2cncnc2)c1-c1ccc(Br)cn1 [Compound 3-26] | good herbicidal activity | good herbicidal activity |
| C#CCOC(=O)Cc1c(C)nn(-c2cncnc2)c1-c1ccc(Cl)cn1 [Compound 3-112] | good herbicidal activity | good herbicidal activity |
| Cc1nn(-c2cncnc2)c(-c2cc3ccccc3cn2)c1CC(=O)O [Compound 1-236] | good herbicidal activity | good herbicidal activity |
| Cc1nn(-c2cncnc2)c(-c2ccc(Br)cn2)c1CC(=O)O [Compound 1-119] | good herbicidal activity | good herbicidal activity |
| COC(=O)Cc1c(C)nn(-c2cncnc2)c1-c1ccc(Cl)c(C)c1 [Compound 2-135] | good herbicidal activity | good herbicidal activity |
| COC(=O)Cc1c(C)nn(-c2cncnc2)c1-c1ccc(Br)cc1 [Compound 2-240] | good herbicidal activity | good herbicidal activity |
| Cc1nn(-c2cncnc2)c(-c2ccc(Cl)cc2)c1CC(=O)O [Compound 1-28] | good herbicidal activity | good herbicidal activity |
| Cc1cc(C)nc(-c2c(CC(=O)O)c(C)nn2-c2cncnc2)c1 [Compound 1-210] | good herbicidal activity | good herbicidal activity |
| CC#CCOC(=O)Cc1c(C)nn(-c2cncnc2)c1-c1ccc(Br)cn1 [Compound 3-176] | good herbicidal activity | good herbicidal activity |
| COC(=O)Cc1c(C)nn(-c2cncnc2)c1-c1cc2ccccc2cn1 [Compound 2-241] | good herbicidal activity | good herbicidal activity |
| COC(=O)Cc1c(C)nn(-c2cncnc2)c1-c1ccc(Cl)cn1 [Compound 2-117] | good herbicidal activity | good herbicidal activity |

Reference: patent US8298994B2, “Substituted 1-(diazinyl)pyrazol-4-ylacetic acids, processes for their preparation and their use as herbicides and plant growth regulators” (Bayer Cropscience AG, priority 2008, dated 2012)
